# Assay results: ChEMBL document CHEMBL5705887, “Distinct concentration-dependent effects of the polo-like kinase 1-specific inhibitor GSK461364A, including differential effect on apoptosis” (Cancer Res, 2009)
# Calls of active or inactive are those of the source. No cut-off for these calls is given here.
# Experiments:
# SK-OV-3 = test: Antiproliferative activity against human SK-OV-3 cells assessed as growth inhibition incubated for 72 hrs by celltiter-glo assay; type: functional
# HCC1937 = test: Antiproliferative activity against human HCC1937 cells assessed as of viable cell signal at minimum maximum cell growth incubated for 72 hrs by celltiter-glo assay relative to control; type: functional
# [1] = biological target: NUAK family SNF1-like kinase 1 (Homo sapiens) (UniProt O60285); test: Inhibition of full length N-terminal his6-tagged recombinant human ARK5 (2 to end residues) expressed in baculovirus Sf21 cells at 10 uM relative to control
# Sequence of NUAK family SNF1-like kinase 1 (Homo sapiens) (O60285 whole entry): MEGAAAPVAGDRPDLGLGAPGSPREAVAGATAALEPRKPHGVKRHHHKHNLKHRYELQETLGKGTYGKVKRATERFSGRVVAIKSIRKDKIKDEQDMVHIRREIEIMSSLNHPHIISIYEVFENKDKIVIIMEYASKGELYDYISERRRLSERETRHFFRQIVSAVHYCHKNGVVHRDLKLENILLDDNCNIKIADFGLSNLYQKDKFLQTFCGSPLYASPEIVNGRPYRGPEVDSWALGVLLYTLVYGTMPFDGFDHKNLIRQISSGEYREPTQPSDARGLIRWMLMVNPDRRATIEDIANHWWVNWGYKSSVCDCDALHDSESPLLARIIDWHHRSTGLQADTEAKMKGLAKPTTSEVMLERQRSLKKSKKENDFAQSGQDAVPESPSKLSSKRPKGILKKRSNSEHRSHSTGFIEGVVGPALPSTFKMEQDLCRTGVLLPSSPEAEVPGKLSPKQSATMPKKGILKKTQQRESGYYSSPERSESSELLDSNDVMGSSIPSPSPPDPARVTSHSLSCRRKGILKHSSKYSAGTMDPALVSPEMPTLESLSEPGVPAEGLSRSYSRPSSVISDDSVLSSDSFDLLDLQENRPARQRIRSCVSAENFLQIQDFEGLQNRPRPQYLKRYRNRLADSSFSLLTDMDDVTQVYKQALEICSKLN
# HL-60 [2] = test: Antiproliferative activity against human HL-60 cells assessed as viable cell signal at maximum growth inhibition incubated for 72 hrs by celltiter-glo assay relative to control; type: functional
# Calu-1 = test: Antiproliferative activity against human Calu-1 cells assessed as viable cell signal at maximum growth inhibition incubated for 72 hrs by celltiter-glo assay relative to control; type: functional
# HT-1080 = test: Antiproliferative activity against human HT-1080 cells assessed as viable cell signal at maximum growth inhibition incubated for 72 hrs by celltiter-glo assay relative to control; type: functional
# NCI-H522 = test: Antiproliferative activity against human NCI-H522 cells assessed as viable cell signal at maximum growth inhibition incubated for 72 hrs by celltiter-glo assay relative to control; type: functional
# SK-MEL-5 = test: Antiproliferative activity against human SK-MEL-5 cells assessed as viable cell signal at maximum growth inhibition incubated for 72 hrs by celltiter-glo assay relative to control; type: functional
# NCI-H358 = test: Antiproliferative activity against human NCI-H358 cells assessed as viable cell signal at maximum growth inhibition incubated for 72 hrs by celltiter-glo assay relative to control; type: functional
# SK-MEL-2 = test: Antiproliferative activity against human SK-MEL-2 cells assessed as of viable cell signal at minimum maximum cell growth incubated for 72 hrs by celltiter-glo assay relative to control; type: functional
# THP-1 = test: Antiproliferative activity against human THP-1 cells assessed as growth inhibition incubated for 72 hrs by celltiter-glo assay; type: functional
# RPMI-8226 = test: Antiproliferative activity against human RPMI-8226 cells assessed as of viable cell signal at minimum maximum cell growth incubated for 72 hrs by celltiter-glo assay relative to control; type: functional
# [3] = biological target: Serine/threonine-protein kinase BRSK2 (Homo sapiens) (UniProt Q8IWQ3); test: Inhibition of full length N-terminal his6-tagged recombinant human BRSK2 expressed in baculovirus Sf21 cells at 10 uM relative to control
# Sequence of Serine/threonine-protein kinase BRSK2 (Homo sapiens) (Q8IWQ3 whole entry): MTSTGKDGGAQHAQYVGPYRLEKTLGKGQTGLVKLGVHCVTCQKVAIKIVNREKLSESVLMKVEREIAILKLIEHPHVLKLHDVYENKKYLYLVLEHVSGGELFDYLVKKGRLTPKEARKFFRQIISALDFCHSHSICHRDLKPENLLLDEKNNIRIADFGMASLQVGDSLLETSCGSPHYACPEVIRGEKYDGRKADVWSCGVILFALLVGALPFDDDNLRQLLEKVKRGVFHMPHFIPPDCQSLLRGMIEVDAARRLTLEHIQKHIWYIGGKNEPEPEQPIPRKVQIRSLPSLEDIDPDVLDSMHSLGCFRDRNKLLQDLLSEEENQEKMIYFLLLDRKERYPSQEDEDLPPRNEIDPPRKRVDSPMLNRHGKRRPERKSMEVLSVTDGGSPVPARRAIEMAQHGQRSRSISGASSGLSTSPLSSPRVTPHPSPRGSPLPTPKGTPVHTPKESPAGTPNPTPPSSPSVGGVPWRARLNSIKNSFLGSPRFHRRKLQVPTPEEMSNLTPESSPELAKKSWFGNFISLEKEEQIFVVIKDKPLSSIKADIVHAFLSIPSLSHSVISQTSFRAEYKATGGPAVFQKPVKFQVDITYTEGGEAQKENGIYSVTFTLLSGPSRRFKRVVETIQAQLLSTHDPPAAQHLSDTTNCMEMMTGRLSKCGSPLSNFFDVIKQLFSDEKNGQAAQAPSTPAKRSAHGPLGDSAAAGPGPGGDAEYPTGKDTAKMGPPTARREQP
# NCI-H157 [4] = test: Antiproliferative activity against human NCI-H157 cells assessed as of viable cell signal at minimum maximum cell growth incubated for 72 hrs by celltiter-glo assay relative to control; type: functional
# HL-60 [5] = test: Antiproliferative activity against human HL-60 cells assessed as growth inhibition incubated for 72 hrs by celltiter-glo assay; type: functional
# A-427 = test: Antiproliferative activity against human A-427 cells assessed as viable cell signal at maximum growth inhibition incubated for 72 hrs by celltiter-glo assay relative to control; type: functional
# NCI-H82 [6] = test: Antiproliferative activity against human NCI-H82 cells assessed as growth inhibition incubated for 72 hrs by celltiter-glo assay; type: functional
# A549 [7] = test: Induction of mitotic arrest in human A549 cells assessed as effect on pHH3 level at 10 to 250 nmol/L incubated for 19 hrs by ELISA analysis; type: functional, cell-based; conditions: dose 10-250 nmol/L
# [8] = tested on: Fibroblast growth factor receptor 1 (Homo sapiens), P11362 [V561M]; test: Inhibition of N-terminal his6-tagged recombinant human FGFR1 V561M mutant (456 to 765 residues) at 10 uM relative to control
# Sequence of Fibroblast growth factor receptor 1 (Homo sapiens), P11362 [V561M] (P11362 whole entry V561M, the tested form may be a part): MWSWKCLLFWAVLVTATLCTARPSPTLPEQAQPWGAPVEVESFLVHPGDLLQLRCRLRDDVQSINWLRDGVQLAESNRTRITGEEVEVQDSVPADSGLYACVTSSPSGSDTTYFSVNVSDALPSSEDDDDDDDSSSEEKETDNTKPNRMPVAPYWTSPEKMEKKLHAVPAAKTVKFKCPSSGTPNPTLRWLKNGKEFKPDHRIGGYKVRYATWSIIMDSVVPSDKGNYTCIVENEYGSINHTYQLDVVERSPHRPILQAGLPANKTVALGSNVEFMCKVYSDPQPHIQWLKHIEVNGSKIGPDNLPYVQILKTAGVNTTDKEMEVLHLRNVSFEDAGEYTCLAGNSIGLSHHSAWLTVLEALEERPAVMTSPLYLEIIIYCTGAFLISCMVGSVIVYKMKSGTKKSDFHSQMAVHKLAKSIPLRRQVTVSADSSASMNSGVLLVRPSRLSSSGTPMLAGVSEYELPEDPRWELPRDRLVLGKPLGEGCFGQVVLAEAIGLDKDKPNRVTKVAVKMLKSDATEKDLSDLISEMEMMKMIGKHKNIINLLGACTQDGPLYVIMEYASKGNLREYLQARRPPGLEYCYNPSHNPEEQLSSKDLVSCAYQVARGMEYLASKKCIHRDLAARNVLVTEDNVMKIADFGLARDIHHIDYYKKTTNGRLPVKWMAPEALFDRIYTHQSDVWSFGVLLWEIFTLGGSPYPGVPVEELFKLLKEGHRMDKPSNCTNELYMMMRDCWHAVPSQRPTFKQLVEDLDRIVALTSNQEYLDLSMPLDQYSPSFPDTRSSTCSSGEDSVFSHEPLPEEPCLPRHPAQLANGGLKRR
# Jurkat = test: Antiproliferative activity against human Jurkat cells assessed as viable cell signal at maximum growth inhibition incubated for 72 hrs by celltiter-glo assay relative to control; type: functional
# A498 = test: Antiproliferative activity against human A498 cells assessed as viable cell signal at maximum growth inhibition incubated for 72 hrs by celltiter-glo assay relative to control; type: functional
# PANC-1 = test: Antiproliferative activity against human PANC-1 cells assessed as growth inhibition incubated for 72 hrs by celltiter-glo assay; type: functional
# T-24 [9] = test: Antiproliferative activity against human T24 cells assessed as of viable cell signal at minimum maximum cell growth incubated for 72 hrs by celltiter-glo assay relative to control; type: functional
# A549 [10] = test: Antiproliferative activity against human A549 cells assessed as viable cell signal at maximum growth inhibition incubated for 72 hrs by celltiter-glo assay relative to control; type: functional
# NCI-H1299 = test: Antiproliferative activity against human NCI-H1299 cells assessed as of viable cell signal at minimum maximum cell growth incubated for 72 hrs by celltiter-glo assay relative to control; type: functional
# BT-549 = test: Antiproliferative activity against human BT-549 cells assessed as of viable cell signal at minimum maximum cell growth incubated for 72 hrs by celltiter-glo assay relative to control; type: functional
# T-24 [11] = test: Antiproliferative activity against human T24 cells assessed as viable cell signal at maximum growth inhibition incubated for 72 hrs by celltiter-glo assay relative to control; type: functional
# [12] = tested on: Platelet-derived growth factor receptor alpha (Homo sapiens), P16234 [V561D]; test: Inhibition of N-terminal his6-tagged recombinant human PDGFRA V561D mutant at 10 uM relative to control
# Sequence of Platelet-derived growth factor receptor alpha (Homo sapiens), P16234 [V561D] (P16234 whole entry V561D): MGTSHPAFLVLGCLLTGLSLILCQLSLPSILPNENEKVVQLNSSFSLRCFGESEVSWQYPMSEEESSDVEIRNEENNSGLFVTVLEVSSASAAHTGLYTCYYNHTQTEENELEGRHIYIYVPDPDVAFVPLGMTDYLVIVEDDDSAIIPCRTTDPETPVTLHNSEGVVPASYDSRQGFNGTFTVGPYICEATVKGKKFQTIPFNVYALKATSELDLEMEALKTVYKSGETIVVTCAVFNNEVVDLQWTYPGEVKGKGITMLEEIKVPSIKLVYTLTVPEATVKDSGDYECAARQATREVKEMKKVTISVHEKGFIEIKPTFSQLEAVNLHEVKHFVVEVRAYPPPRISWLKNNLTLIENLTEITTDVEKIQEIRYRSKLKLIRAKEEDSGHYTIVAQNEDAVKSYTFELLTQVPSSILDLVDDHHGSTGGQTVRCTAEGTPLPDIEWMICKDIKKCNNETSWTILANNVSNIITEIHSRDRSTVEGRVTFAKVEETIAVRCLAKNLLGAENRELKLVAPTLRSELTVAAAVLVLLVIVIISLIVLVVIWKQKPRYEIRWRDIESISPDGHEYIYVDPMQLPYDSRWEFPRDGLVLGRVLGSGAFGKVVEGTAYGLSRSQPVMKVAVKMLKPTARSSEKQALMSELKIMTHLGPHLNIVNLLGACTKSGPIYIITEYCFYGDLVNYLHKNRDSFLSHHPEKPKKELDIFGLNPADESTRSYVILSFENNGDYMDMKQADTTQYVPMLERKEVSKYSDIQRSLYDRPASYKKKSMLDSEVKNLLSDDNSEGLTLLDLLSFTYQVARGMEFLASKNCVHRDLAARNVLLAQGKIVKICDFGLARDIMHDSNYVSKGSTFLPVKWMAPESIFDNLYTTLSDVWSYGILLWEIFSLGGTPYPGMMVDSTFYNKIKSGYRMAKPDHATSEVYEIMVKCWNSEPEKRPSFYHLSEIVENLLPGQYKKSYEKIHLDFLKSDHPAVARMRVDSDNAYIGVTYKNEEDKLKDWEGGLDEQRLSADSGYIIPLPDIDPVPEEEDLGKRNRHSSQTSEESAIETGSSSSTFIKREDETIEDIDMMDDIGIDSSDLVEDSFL
# [13] = biological target: Platelet-derived growth factor receptor alpha (Homo sapiens) (UniProt P16234); test: Inhibition of N-terminal his6-tagged recombinant human PDGFRalpha (550 to end residues) expressed in baculovirus Sf21 insect cells at 10 uM relative to control
# Sequence of Platelet-derived growth factor receptor alpha (Homo sapiens) (P16234 whole entry): as the sequence (P16234 whole entry V561D) above, with D561V counted along it
# SK-MEL3 = test: Antiproliferative activity against human SK-MEL3 cells assessed as viable cell signal at maximum growth inhibition incubated for 72 hrs by celltiter-glo assay relative to control; type: functional
# NCI-H82 [14] = test: Antiproliferative activity against human NCI-H82 cells assessed as viable cell signal at maximum growth inhibition incubated for 72 hrs by celltiter-glo assay relative to control; type: functional
# [15] = biological target: Calcium/calmodulin-dependent protein kinase type II subunit gamma (Homo sapiens) (UniProt Q13555); test: Inhibition recombinant human CAMKII-gamma at 10 uM relative to control
# Sequence of Calcium/calmodulin-dependent protein kinase type II subunit gamma (Homo sapiens) (Q13555 whole entry): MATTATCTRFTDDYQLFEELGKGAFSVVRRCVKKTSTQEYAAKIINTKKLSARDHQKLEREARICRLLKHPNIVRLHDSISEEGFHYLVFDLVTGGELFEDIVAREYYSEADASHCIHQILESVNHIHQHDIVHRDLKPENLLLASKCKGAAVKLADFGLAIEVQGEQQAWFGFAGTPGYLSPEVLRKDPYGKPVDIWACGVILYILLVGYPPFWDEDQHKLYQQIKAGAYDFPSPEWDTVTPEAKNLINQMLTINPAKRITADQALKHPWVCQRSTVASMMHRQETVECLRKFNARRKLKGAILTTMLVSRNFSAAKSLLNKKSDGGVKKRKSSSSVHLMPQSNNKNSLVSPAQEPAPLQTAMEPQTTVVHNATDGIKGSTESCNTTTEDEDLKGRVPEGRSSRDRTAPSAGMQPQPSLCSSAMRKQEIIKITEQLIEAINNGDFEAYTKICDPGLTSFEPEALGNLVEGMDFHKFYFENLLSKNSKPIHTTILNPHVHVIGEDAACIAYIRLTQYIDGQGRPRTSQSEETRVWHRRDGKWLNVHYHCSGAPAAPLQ
# SW-620 = test: Antiproliferative activity against human SW620 cells assessed as growth inhibition incubated for 72 hrs by celltiter-glo assay; type: functional
# [16] = Antiproliferative activity against human PL45 cells assessed as of viable cell signal at minimum maximum cell growth incubated for 72 hrs by celltiter-glo assay relative to control; type: functional
# HT-29 = test: Antiproliferative activity against human HT-29 cells assessed as growth inhibition incubated for 72 hrs by celltiter-glo assay; type: functional
# NCI-H157 [17] = test: Antiproliferative activity against human NCI-H157 cells assessed as growth inhibition incubated for 72 hrs by celltiter-glo assay; type: functional
# NCI-H1155 = test: Antiproliferative activity against human NCI-H1155 cells assessed as viable cell signal at maximum growth inhibition incubated for 72 hrs by celltiter-glo assay relative to control; type: functional
# MDA-MB-231 = test: Antiproliferative activity against human MDA-MB-231 cells assessed as viable cell signal at maximum growth inhibition incubated for 72 hrs by celltiter-glo assay relative to control; type: functional
# HN5 = test: Antiproliferative activity against human HN5 cells assessed as growth inhibition incubated for 72 hrs by celltiter-glo assay; type: functional
structure (smiles),measurement,setting,value
C[C@@H](Oc1cc(-n2cnc3ccc(CN4CCN(C)CC4)cc32)sc1C(N)=O)c1ccccc1C(F)(F)F [GSK-461364],GI50,SK-OV-3,0.0289 µM
same,Emin,HCC1937,100%
same,inhibition,[1],79%
same,Emax,HL-60 [2],191%
same,Emax,Calu-1,371%
same,Emax,HT-1080,223%
same,Emax,NCI-H522,264%
same,Emax,SK-MEL-5,258%
same,Emax,NCI-H358,308%
same,Emin,SK-MEL-2,71.3%
same,GI50,THP-1,0.0118 µM
same,Emin,RPMI-8226,34.6%
same,inhibition,[3],79%
same,Emin,NCI-H157 [4],95.3%
same,GI50,HL-60 [5],0.0175 µM
same,Emax,A-427,218%
same,GI50,NCI-H82 [6],0.00485 µM
same,Activity,A549 [7],Active
same,inhibition,[8],62%
same,Emax,Jurkat,753%
same,Emax,A498,774%
same,GI50,PANC-1,0.0449 µM
same,Emin,T-24 [9],109%
same,Emax,A549 [10],632%
same,Emin,NCI-H1299,44.4%
same,Emin,BT-549,77.2%
same,Emax,T-24 [11],692%
same,inhibition,[12],96%
same,inhibition,[13],72%
same,Emax,SK-MEL3,708%
same,Emax,NCI-H82 [14],398%
same,inhibition,[15],84%
same,GI50,SW-620,0.0066 µM
same,Emin,[16],101.2%
same,GI50,HT-29,0.0081 µM
same,GI50,NCI-H157 [17],0.0253 µM
same,Emax,NCI-H1155,645%
same,Emax,MDA-MB-231,520%
same,GI50,HN5,0.0155 µM
